Data reported in patent US20080102120A1, “Solid Pharmaceutical Composition Comprising Valsartan” (priority 2004, published 2008).

Experiment: Particle size of valsartan by laser light scattering (Malvern Mastersizer MS 2000, suspension in vegetable oil)
Assay type: physicochemical
Conditions: for average particle size: Malvern Mastersizer MS 2000 software; for % of particles in the range of 0.02-50 μm: range 0.02-50 μm; for % of particles in the range of 0.02-100 μm: range 0.02-100 μm; for size that 50% of particles were larger than (D50): volume diameter
From the text: The term “particle size” as used herein refers to the volume diameter of valsartan particles, as determined by laser light scattering using a Malvern-Mastersizer Apparatus MS 2000. D50 means that 50% of particles (V/V) have a higher volume diameter than the indicated value. The term “valsartan particle” means a particle that contains valsartan or, preferably, a particle that essentially or completely consists of valsartan. The particles to be subjected to the particle size measurement are first suspended in vegetable oil (i.e. sunflower oil) and then subjected to a size determination in a Malvern Mastersizer MS 2000 instrument. Usually, 100-800 mg of substance are dispersed in 5-8 ml of vegetable oil. No solubilizers or surfactants are used. According to manufacturer's information, the Malvern Mastersizers allow for a measurement of particle size distributions in the range of 20 nm to 2000 μm, with a precision of better than 0.5%. Particle sizes are determined by measuring the angular distribution of laser light scattered by a homogeneous suspension of particles. The size distribution is determined from the light scattering data using the theory of light scattering developed by Gustav Mie. The following examples illustrate the invention and are not intended to restrict the scope of the invention in any way. In the following examples, the water content was determined as loss on drying on a Mettler Toledo HR73 halogen moisture analyzer. The particle size was determined in a Malvern Mastersizer MS 2000, using a suspension of valsartan in vegetable oil (sunflower oil of Oljarica Kranj).

size that 10% of particles were larger than	size that 10% of particles were smaller than	average particle size	Particle size distribution, Volume % in range 0.01-2 μm	% of particles in the range of 0.02-50 μm	% of particles in the range of 0.02-100 μm	Particle size distribution, Volume % in range 2-5 μm	Particle size distribution, Volume % in range 5-10 μm	Particle size distribution, Volume % in range 10-20 μm	Particle size distribution, Volume % in range 20-50 μm	Particle size distribution, Volume % in range 50-100 μm	Particle size distribution, Volume % in range 100-150 μm	Particle size distribution, Volume % in range 150-800 μm	size that 50% of particles were larger than (D50)	% of particles in the range of 0.02-56 μm (range 0.02-56 μm as printed)	Structure (SMILES)
304.3 μm	10.3 μm	123 μm	0.9 Volume %	38.1%	58.1%	3.3 Volume %	5.5 Volume %	9.3 Volume %	19.1 Volume %	20.0 Volume %	12.4 Volume %	29.4 Volume %	76.6 μm	–	CCCCC(=O)N(Cc1ccc(-c2ccccc2-c2nnn[nH]2)cc1)[C@H](C(=O)O)C(C)C [valsartan (A), N-(1-oxopentyl)-N-{4-[2-(1H-tetrazole-5-yl)phenyl]-benzyl}-L-valine]
460.8 μm	34.7 μm	219 μm	0.7 Volume %	15.0%	30.0%	1.2 Volume %	1.0 Volume %	2.6 Volume %	9.5 Volume %	15.0 Volume %	13.1 Volume %	56.4 Volume %	179.1 μm	–	CCCCC(=O)N(Cc1ccc(-c2ccccc2-c2nnn[nH]2)cc1)[C@H](C(=O)O)C(C)C [valsartan (B), N-(1-oxopentyl)-N-{4-[2-(1H-tetrazole-5-yl)phenyl]-benzyl}-L-valine]
136.2 μm	8.2 μm	65 μm	1.4 Volume %	–	78.5%	4.8 Volume %	5.7 Volume %	9.4 Volume %	25.9 Volume %	31.3 Volume %	14.1 Volume %	7.3 Volume %	53.4 μm	47.2%	CCCCC(=O)N(Cc1ccc(-c2ccccc2-c2nnn[nH]2)cc1)[C@H](C(=O)O)C(C)C [valsartan (C), N-(1-oxopentyl)-N-{4-[2-(1H-tetrazole-5-yl)phenyl]-benzyl}-L-valine]
